Source: the supplement of paper PMC10307832

Legend:
Test in all cases: relative viability (nuclei count vs DMSO), 5 days (fraction); higher = more cells survive
VE-821 + OSI-027 = compound: CS(=O)(=O)c1ccc(-c2cnc(N)c(C(=O)Nc3ccccc3)n2)cc1 [VE-821] + COc1cccc2cc(-c3nc([C@H]4CC[C@H](C(=O)O)CC4)n4ncnc(N)c34)[nH]c12 [OSI-027] (partner 0.5 µM)
Outline: (§1)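 Lung cancer cell lines, seeded in 1536-well plates, were treated the following day by pin tool with a single drug or with five library-drug doses (not always all listed) in √10 steps on top of a fixed anchor-drug dose. Cells were fixed and nuclei stained in one step after 5 days, and nuclei were counted. Relative viability is the nuclei count for treated wells divided by that for vehicle wells, reported as medians of duplicate plates.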

Vismodegib + OSI-027 = compound: CS(=O)(=O)c1ccc(C(=O)Nc2ccc(Cl)c(-c3ccccn3)c2)c(Cl)c1 [Vismodegib] + COc1cccc2cc(-c3nc([C@H]4CC[C@H](C(=O)O)CC4)n4ncnc(N)c34)[nH]c12 [OSI-027] (partner 0.5 µM)
Outline: as §1

Ruxolitinib + Alpelisib = compound: N#CC[C@H](C1CCCC1)n1cc(-c2ncnc3[nH]ccc23)cn1 [Ruxolitinib] + Cc1nc(NC(=O)N2CCC[C@H]2C(N)=O)sc1-c1ccnc(C(C)(C)C(F)(F)F)c1 [Alpelisib] (partner 2 µM)
Outline: as §1

VE-821 + Vorinostat = compound: CS(=O)(=O)c1ccc(-c2cnc(N)c(C(=O)Nc3ccccc3)n2)cc1 [VE-821] + O=C(CCCCCCC(=O)Nc1ccccc1)NO [Vorinostat] (partner 1 µM)
Outline: as §1

| Cell Line | relative viability (VE-821 + OSI-027; first compound 0.08 µM) | relative viability (VE-821 + OSI-027; first compound 0.253 µM) | relative viability (VE-821 + OSI-027; first compound 0.8 µM) | relative viability (VE-821 + OSI-027; first compound 2.53 µM) | relative viability (VE-821 + OSI-027; first compound 8 µM) | relative viability (Vismodegib + OSI-027; first compound 0.08 µM) | relative viability (Vismodegib + OSI-027; first compound 0.253 µM) | relative viability (Vismodegib + OSI-027; first compound 0.8 µM) | relative viability (Vismodegib + OSI-027; first compound 2.53 µM) | relative viability (Vismodegib + OSI-027; first compound 8 µM) | relative viability (Ruxolitinib + Alpelisib; first compound 0.253 µM) | relative viability (Ruxolitinib + Alpelisib; first compound 0.8 µM) | relative viability (Ruxolitinib + Alpelisib; first compound 2.53 µM) | relative viability (Ruxolitinib + Alpelisib; first compound 8 µM) | relative viability (VE-821 + Vorinostat; first compound 0.08 µM) | relative viability (VE-821 + Vorinostat; first compound 0.253 µM) | relative viability (VE-821 + Vorinostat; first compound 0.8 µM) | relative viability (VE-821 + Vorinostat; first compound 2.53 µM) | relative viability (VE-821 + Vorinostat; first compound 8 µM) | relative viability (Ruxolitinib + Alpelisib; first compound 0.08 µM) |
| --- | --- | --- | --- | --- | --- | --- | --- | --- | --- | --- | --- | --- | --- | --- | --- | --- | --- | --- | --- | --- |
| PC-14 | 1.01 | 0.762 | 0.913 | 0.824 | 0.336 | 0.748 | 0.686 | 0.797 | 0.738 | 0.836 | 0.868 | 0.902 | 0.879 | 0.78 | 0.95 | 0.68 | 0.613 | 0.639 | 0.255 |  |
| NCI-H650 | 0.499 | 0.473 | 0.57 | 0.455 | 0.532 | 0.604 | 0.513 | 0.454 | 0.511 | 0.491 | 1.33 | 1.23 | 0.964 | 0.667 | 0.443 | 0.403 | 0.395 | 0.471 | 0.409 |  |
| NCI-H1355 | 0.443 | 0.346 | 0.375 | 0.442 | 0.307 | 0.488 | 0.447 | 0.378 | 0.444 | 0.399 | 0.83 | 0.85 | 0.58 | 0.612 | 0.819 | 0.61 | 0.663 | 0.72 | 0.57 | 0.793 |
| HOP-62 | 1.04 | 0.809 | 0.73 | 0.925 | 0.697 | 0.841 | 0.812 | 0.793 | 0.8 | 0.899 | 0.813 | 1.05 | 0.96 | 0.723 | 0.766 | 0.542 | 0.644 | 0.771 | 0.469 |  |
| NCI-H3122 | 1.01 | 0.958 | 1 | 1.08 | 0.758 | 0.971 | 0.863 | 0.84 | 0.849 | 0.981 | 0.786 | 0.851 | 0.556 | 0.617 | 1.11 | 1.01 | 0.978 | 1.13 | 0.908 | 0.807 |
| NCI-H1437 | 1.12 | 0.831 | 0.838 | 0.851 | 0.756 | 0.884 | 0.805 | 0.905 | 0.858 | 0.804 | 0.807 | 1.01 | 1.03 | 0.795 | 0.847 | 0.797 | 0.901 | 0.777 | 0.611 | 0.871 |
| BEN | 0.279 | 0.297 | 0.332 | 0.277 | 0.316 | 0.336 | 0.308 | 0.272 | 0.294 | 0.311 | 0.965 | 1.16 | 0.956 | 1.08 | 0.557 | 0.597 | 0.529 | 0.587 | 0.594 | 0.944 |
| NCI-H520 | 0.257 | 0.257 | 0.195 | 0.278 | 0.208 | 0.284 | 0.227 | 0.298 | 0.314 | 0.309 | 0.837 | 1.04 | 0.988 | 0.756 | 0.614 | 0.779 | 0.719 | 0.603 | 0.353 |  |
| NCI-H2087 | 0.537 | 0.576 | 0.515 | 0.683 | 0.495 | 0.645 | 0.476 | 0.398 | 0.618 | 0.39 | 0.832 | 1.13 | 0.769 | 0.954 | 0.667 | 0.666 | 0.838 | 0.79 | 0.675 | 0.951 |
| NCI-H2347 | 0.361 | 0.399 | 0.404 | 0.446 | 0.376 | 0.568 | 0.454 | 0.304 | 0.425 | 0.454 | 0.999 | 1.17 | 0.984 | 1.19 | 0.531 | 0.555 | 0.465 | 0.818 | 0.558 | 0.949 |
| NCI-H838 | 0.431 | 0.341 | 0.329 | 0.425 | 0.435 | 0.416 | 0.334 | 0.338 | 0.41 | 0.441 | 0.973 | 0.823 | 0.618 | 0.31 | 0.755 | 0.688 | 0.697 | 0.69 | 0.542 | 0.848 |
| LXF-289 | 0.949 | 0.726 | 0.902 | 0.971 | 0.759 | 0.764 | 0.764 | 0.795 | 0.823 | 0.59 | 1 | 1.04 | 0.948 | 0.815 | 0.78 | 0.843 | 0.827 | 0.812 | 0.786 | 1.01 |
| LC-2-ad | 0.878 | 0.945 | 0.986 | 0.928 | 0.789 | 0.975 | 0.786 | 0.824 | 0.809 | 0.676 | 0.848 | 0.934 | 0.734 | 0.567 | 0.758 | 0.748 | 0.768 | 0.8 | 0.659 | 0.895 |
| NCI-H2085 | 0.788 | 0.736 | 0.489 | 0.747 | 0.334 | 0.9 | 0.732 | 0.756 | 0.74 | 0.662 | 1.02 | 1.13 | 0.979 | 0.822 | 0.935 | 0.754 | 0.609 |  | 0.511 | 0.971 |
